Results from patent publication US9260707B2, “Compounds for inhibition of MMP13-substrate interactions and methods of use thereof to treat osteoarthritis and cartilage degeneration” (ProteaPex Therapeutics, LLC, priority 2010, dated 2016).
Peptide text beside a SMILES is read from it.

Legend:
[1] = tested on: MMP; conditions: in vivo; cited from earlier work
[2] = tested on: MMP13; assay: MMP13 enzymatic activity in cartilage extracts with inhibitors; type: biochemical, avian
Experimental: Utilizing a standard curve with MMP13 and MMP9 catalytic domains (Enzo, Inc) we quantitated the amount of MMP13 and MMP9 activity in cartilage extracts (Table 4). Cartilage isolated from day 17 avian embryos contain 0.166 units and 0.152 units MMP13 per 40 μg total tissue in early hypertrophic and late hypertrophic tissue, respectively. […] Inclusion of an inhibitor of MMP13 (Calbiochem) reduces the activity in both cartilage populations by 24% and 30% respectively.

[3] = Toxicity in vivo by blood analysis; set-up: species or system rat
Experimental: Cytotoxicity was assessed by Alomar Blue Assay (Invitrogen) on primary chondrocytes and a monocyte cell line incubated for 24 hours with PxTx001-1. Absorbance was recorded at 570 nm for every hour up to 24 hrs to monitor both proliferation and metabolic activity. (FIG. 39). Toxicity in vivo was determined by blood analysis from rats that had been injected with the peptide as described previously. Total cell count, blood components and serum proteins were measured (Table 5).

[4] = tested on: resting cartilage tissue extract (LTBP1-containing TGFβ large latent complex); assay: Peptide binding assay, resting cartilage tissue extract; set-up: species or system avian; conditions: 100 nM fluorescent-labeled peptide
Excerpt: (§1) Cartilage from day 17 avian embryo sterna was extracted with 0.5% CHAPS buffer and binding assays conducted. Scr=scrambled control; +cold=unlabeled competition. *=p<0.001 compared to scrambled. ***=p<0.001 compared to MMP13-derived peptide by ANOVA with Tukey's Analysis. (A) Resting cartilage and MMP13-19 peptide. (B) Hypertrophic cartilage and MMP13-19 peptide. (C) Hypertrophic cartilage and MMP13-10 peptide D. hypertrophic cartilage and MMP13-6 peptide.
(§2) Twenty-five micrograms of total equal protein from cartilage CHAPS extracts or five nanograms recombinant protein of the calcium-like EGF binding domain of LTBP1 (a kind gift of Sarah Dallas) or hypertrophic cartilage from day 17 avian embryo sterna and tibial growth plate cartilage from day 14 newborn rat pups were extracted with 0.5% CHAPS buffer and eluates immunoprecipitated with polyclonal antibody to LTBP1 and then samples were plated onto poly-L-lysine coated 96 well plates. After overnight drying, the protein-coated wells were incubated with 100 nM fluorescent-labeled peptide in Tris buffered saline [150 mM NaCl, 10 mM Tris, pH 8.0] and 20% horse serum for 4 hours at 16° C. After incubation, the wells are washed twice with binding buffer, the protein layer solubilized with 5N NaOH and fluorescence bound measured at 495 nm excitation and 520 nm emission on the LabSystems Fluoroskan Ascent CF plate reader. […]

[5] = tested on: hypertrophic cartilage tissue extract (LTBP1-containing TGFβ large latent complex); assay: Peptide binding assay, hypertrophic cartilage tissue extract; set-up: species or system avian; conditions: 100 nM fluorescent-labeled peptide
Excerpt: as §1, §2

[6] = tested on: hypertrophic chondrocyte-produced extracellular matrix (LTBP1 in native conformation); assay: Peptide binding to extracellular matrix of whole cell primary chondrocyte cultures; set-up: species or system avian
Experimental: (§3) Binding assays utilizing intact hypertrophic chondrocyte-produced extracellular matrix, LTBP1 immunoprecipitates of hypertrophic chondrocyte-produced extracellular matrix and recombinant protein of the calcium-binding, EGF-like domains of LTBP1 (30) were performed as described in Materials and Methods. *=p<0.001 compared to scrambled. ***=p<0.001 compared to MMP13-derived peptide by ANOVA with Tukey's analysis. (A) Intact hypertrophic chondrocyte-produced extracellular matrix and MMP13-19 or MMP13-10 peptide binding. (B) 25 μg eluates of hypertrophic cartilage immunoprecipitated with polyclonal antibody to LTBP1 and MMP13-19 peptide binding. (C) 15 ng of recombinant protein of the calcium-binding, EGF-like domains and MMP13-19 or MMP13-10 or MMP13-6 peptide binding.
Sterna were removed from day 17 chick embryos using microsurgical techniques as previously described (D'Angelo et al., J. Bone Miner. Res. 12:1368-1377, 1997). […] The cell suspensions were then filtered through a […] filter, counted, seeded onto Falcon 6-well, tissue culture treated plates and covered with 2 ml of high glucose DMEM containing 10% NuSerum and 50 μg/ml of penicillin/streptomycin, 2 mM of L-glutamine (Invitrogen Life Technologies, Carlsbad, Calif., USA). […]

[7] = tested on: calcium-binding EGF-like domains of LTBP1 (CE-LTBP1); assay: Peptide binding to recombinant calcium-binding EGF-like domains of LTBP1 (CE-LTBP1)
Experimental: as §3, with “(C) 15 ng of recombinant protein of the calcium-binding, EGF-like domains and MMP13-19 or MMP13-10 or MMP13-6 peptide binding.” left out
as §2, with “After overnight drying, the protein-coated wells were incubated with 100 nM fluorescent-labeled peptide in Tris buffered saline [150 mM NaCl, 10 mM Tris, pH 8.0] and 20% horse serum for 4 hours at 16° C.” left out

[8] = tested on: MIA-induced OA model; assay: Acute treatment of MIA-induced OA, week 4 micro CT; type: in vivo, rat
[9] = tested on: mono-iodoacetate (MIA)-induced osteoarthritis; assay: MIA-induced osteoarthritis, cartilage mineralization (total and bone volume), d14 and d21; type: in vivo, rat; set-up: Total Volume / Bone Volume: unit not given here
Experimental: Isolated joints were analyzed by Micro CT to measure cortical bone, trabecular bone and cartilage of the patella, femur and tibia, the production of chondrophytes and tissue mineralization in response to treatment. Total mineralization in the patella, femur and tibial cartilages, as well as subchondral bone, were calculated with Scanco μCT software. Micro-CT was conducted with a Scanco uCT 35 (Scanco Medical, Bassersdorf, Switzerland) system. Scans of 15 μm voxel size, 55 KVp, 0.36 degrees rotation step (180 degrees angular range) and a 600 ms exposure per view produced from joints immersed in phosphate buffered saline.
Animals were treated with MMP13-19 peptide or BMP-7 protein once a week for two (d14) or three (d21) weeks following an injection of mono-iodoacetate (MIA), a chemical agent that induces osteoarthritis pathology measurable at four weeks post injection. The samples that received saline are the positive disease control. 250 nM of MMP13-19 peptide and 50 uM BMP-7 were injected laterally below the patellar ligament. […] But, it is also known that BMP-7 is bone-inducing.

Molecule: COc1ccc(S(=O)(=O)N(Cc2cccnc2)[C@@H](C(=O)NO)C(C)C)cc1 [CGS-27023A]
- side-effects in treatment of OA [1]: severe side-effects known as MMP-induced musculoskeletal syndrome

Molecule: Cc1cc(CNC(=O)c2cc(C(=O)NCc3ccc(F)c(C)c3)ncn2)ccc1F [MMP13 Inhibitor]
- reduction of MMP13 activity ([2]; early hypertrophic tissue): 24%
- reduction of MMP13 activity ([2]; late hypertrophic tissue): 30%

Molecule: CC[C@H](C)[C@H](NC(=O)[C@H](CCCCN)NC(=O)[C@H](CCCCN)NC(=O)[C@@H](NC(=O)[C@H](CCC(=O)O)NC(=O)[C@H](CCCCN)NC(=O)[C@@H]1CCCN1C(=O)[C@H](CC(C)C)NC(=O)CNC(=O)[C@H](CC(C)C)NC(=O)[C@@H](N)CCC(=O)O)C(C)C)C(=O)N[C@@H](CO)C(=O)N[C@@H](C)C(=O)N[C@@H](C)C(=O)N[C@H](C(=O)N[C@@H](Cc1c[nH]cn1)C(=O)N[C@@H](Cc1ccccc1)C(=O)N[C@@H](CCC(=O)O)C(=O)N[C@@H](CC(=O)O)C(=O)O)C(C)C [MMP13-19 peptide] (H-ELGLPKEVKKISAAVHFED-OH)
- ALT ([3]; 1 injection): 56 U/L
- AST ([3]; 1 injection): 99 U/L
- Alk Phos ([3]; 1 injection): 272 U/L
- BUN ([3]; 1 injection): 15 mg/dL
- Cholesterol ([3]; 1 injection): 74 mg/dL
- Creatinine ([3]; 1 injection): 0.4 mg/dL
- RBC ([3]; 1 injection): 5.59e+06 µL⁻¹
- Total Bilirubin ([3]; 1 injection): 0.3 mg/dL
- WBC ([3]; 1 injection): 3600 µL⁻¹
- ALT ([3]; 4 injections): 52 U/L
- AST ([3]; 4 injections): 95 U/L
- Alk Phos ([3]; 4 injections): 194.5 U/L
- BUN ([3]; 4 injections): 18 mg/dL
- Cholesterol ([3]; 4 injections): 67.5 mg/dL
- Creatinine ([3]; 4 injections): 0.3 mg/dL
- RBC ([3]; 4 injections): 6.9e+06 µL⁻¹
- Total Bilirubin ([3]; 4 injections): 1.1 mg/dL
- WBC ([3]; 4 injections): 4550 µL⁻¹
- total cell count, blood components and serum proteins (all parameters measured) ([3]; rats injected with the peptide): within normal ranges

Molecule: CC1(C)SCCN(S(=O)(=O)c2ccc(Oc3ccncc3)cc2)[C@H]1C(=O)NO [prinomastat]
- side-effects in treatment of OA [1]: severe side-effects known as MMP-induced musculoskeletal syndrome

Molecule: MMP13-6 peptide: amino acids 37-42 of SEQ ID NO: 1 (VDAELF; listed as Homo sapiens)
- binding compared to scrambled peptide control [4]: did not specifically bind
- binding compared to scrambled peptide control [5]: did not specifically bind
- binding compared to scrambled peptide [6]: did not bind specifically
- binding of recombinant protein more than scrambled peptide [7]: did not bind specifically

Molecule: MMP13-10 peptide: amino acids 17-26 of SEQ ID NO: 1 (LRGETMIFKD; listed as Homo sapiens)
- binding compared to scrambled peptide control [4]: less than two-fold
- binding compared to scrambled peptide control [5]: less than two-fold
- binding compared to scrambled peptide [6]: four-fold
- binding of recombinant protein more than scrambled peptide [7]: did not bind specifically

B1: BMP-7: BMP-7 protein, positive control, chondroprotective and bone-inducing (protein, UniProt P18075 293-431, looked up)
Bone morphogenetic protein 7: STGSKQRSQNRSKTPKNQEALRMANVAENSSSDQRQACKKHELYVSFRDLGWQDWIIAPEGYAAYYCEGECAFPLNSYMNATNHAIVQTLVHFINPETVPKPCCAPTQLNAISVLYFDDSSNVILKKYRNMVVRACGCH
- BV/TV (ratio of bone volume to total volume) ([8]; Femur): 0.2245 +/− 0.066
- TbN (trabecular number) ([8]; Femur): 4.200 +/− 0.830
- TbN (trabecular number) ([8]; Patella): 6.2122 +/− 0.169
- BV/TV (ratio of bone volume to total volume) ([8]; Patella, 250 nM peptide or 500 ng BMP7 weekly infrapatellar): 0.6846 +/− 0.084
- BV/TV (ratio of bone volume to total volume) ([8]; Tibia): 0.1757 +/− 0.087
- TbN (trabecular number) ([8]; Tibia): 4.9095 +/− 0.719
- BV/TV ([9]; Patellar cartilage d14): 0.0626
- Bone Volume ([9]; Patellar cartilage d14): 0.419
- Total Volume ([9]; Patellar cartilage d14, 250 nM peptide or 50 uM BMP-7 once a week): 6.6967
- BV/TV ([9]; Patellar cartilage d21): 0.0192
- Bone Volume ([9]; Patellar cartilage d21): 0.2037
- Total Volume ([9]; Patellar cartilage d21): 10.7748
- BV/TV ([9]; Total Joint Cartilage d14): 0.0435
- Bone Volume ([9]; Total Joint Cartilage d14): 1.0643
- Total Volume ([9]; Total Joint Cartilage d14): 24.4891
- BV/TV ([9]; Total Joint Cartilage d21): 0.0412
- Bone Volume ([9]; Total Joint Cartilage d21): 0.9607
- Total Volume ([9]; Total Joint Cartilage d21): 23.3101
